≈ marks a conversion by molar mass, not a printed value. Where two headings read alike, the source gives them in different places. Where only a bound is given, the exact number is not on record here.

Series [1] is described as follows: Solubility of diol compounds in aqueous solution. Format: physicochemical.
For series [2], the target named is T1, human TRPV1 (Homo sapiens, UniProt Q8NER1). The series is described as follows: Capsaicin-based assay (Fluo-4 calcium fluorescence, TRPV1/CHO cells). Format: cell-based. Details: expressed in transfected cells. The protocol: One day prior to assay, TRPV1/CHO cells are seeded in 96-well clear-bottom black plates (20,000 cells/well) in growth media. On the day of the experiment, the cells are washed with 0.2 ml 1× Hank's Balanced Salt Solution (Life Technologies) containing 1.6 mM CaCl2 and 20 mM HEPES, pH 7.4 (“wash buffer”). Subsequently, the cells are loaded by incubation in 0.1 ml of wash buffer containing Fluo-4 at 3 µM final concentration. After 1 hour, the cells are washed twice with 0.2 ml wash buffer and resuspended in 0.1 ml wash buffer. The plates are then transferred to a Fluorescence Imaging Plate Reader (Molecular Devices). Fluorescence intensity is monitored for 15 seconds to establish a baseline. Subsequently, test compounds diluted in assay buffer (1× Hank's Balanced Salt Solution containing 1 mM CaCl2 and 20 mM HEPES, pH 7.4) containing 1% DMSO are added to the cell plate and fluorescence is monitored for 2 minutes. […] Human TRPV1 is then activated by the addition of 50 μL capsaicin (100 nM final concentration) and plates incubated for an additional 3 min. Data are collected over the entire time course and analyzed using Excel and the curve-fitting Formula GraphPad Prism.

The target in series [3] is T1, human TRPV1. The series is described as follows: pH-based assay (Fura-2 AM Ca2+ response to low pH, TRPV1/CHO cells).
Procedure: For this Protocol, a Chinese Hamster Ovary cell line (CHO) that constitutively expresses human TRPV1 is used (TRPV1/CHO cells).
TRPV1/CHO cells are seeded in the 96-well clear-bottom black-wall plate (Nunc) at densities of 1-2×10^4 cells/well and grown in 100 μL of culture medium (alpha-MEM supplemented with 10% FBS, 20 mM HEPES, 1 mg/mL geneticin and 1% antibiotic-antimycotic mixed stock solution) for 1-2 days before the experiment.
(2) The 96-well plate is incubated at 37° C. for 45 min.
(3) The loading buffer is removed from each well. […] The wells are then refilled with 80 μL of measuring buffer.
(4) After an incubation at 4° C. for 15 min, the 96-well plate is transferred to FDSS-3000 (Hamamatsu photonics, Japan).
(5) The Fura-2 fluorescent intensity is monitored at a wavelength of 340 nm and at 380 nm, respectively, at a rate of 0.5 Hz for a total of 240 seconds. After 16 time points (32 sec) of baseline detection, 20 μL of agonist solution is added to each well. […]
(6) Fluorescence intensity ratio refers to the fluorescence intensity at 340 nm over the fluorescence intensity at 380 nm at a particular time point. […]
(7) Maximal signal ratios from each well are calculated as output data using the FDSS-3000 analysis program. Data are analyzed using Excel (Microsoft) and XLfit (idbs) software. […]
(6) Fura-2 fluorescent intensity is monitored as described in 2.2.(5) of this Protocol. […]
[4] abbreviates: pH 1.2, read-out: Solubility (μM) pH: 1.2.
The mark [5] stands for this setting: pH 6.8, aqueous buffer, read-out: Solubility (μM) pH: 6.8.
Where [6] appears, read: TRPV1/CHO cells, capsaicin 100 nM final concentration, read-out: Potency, IC50(nM) Capsaicin assay.

T1 sequence (Q8NER1 whole entry): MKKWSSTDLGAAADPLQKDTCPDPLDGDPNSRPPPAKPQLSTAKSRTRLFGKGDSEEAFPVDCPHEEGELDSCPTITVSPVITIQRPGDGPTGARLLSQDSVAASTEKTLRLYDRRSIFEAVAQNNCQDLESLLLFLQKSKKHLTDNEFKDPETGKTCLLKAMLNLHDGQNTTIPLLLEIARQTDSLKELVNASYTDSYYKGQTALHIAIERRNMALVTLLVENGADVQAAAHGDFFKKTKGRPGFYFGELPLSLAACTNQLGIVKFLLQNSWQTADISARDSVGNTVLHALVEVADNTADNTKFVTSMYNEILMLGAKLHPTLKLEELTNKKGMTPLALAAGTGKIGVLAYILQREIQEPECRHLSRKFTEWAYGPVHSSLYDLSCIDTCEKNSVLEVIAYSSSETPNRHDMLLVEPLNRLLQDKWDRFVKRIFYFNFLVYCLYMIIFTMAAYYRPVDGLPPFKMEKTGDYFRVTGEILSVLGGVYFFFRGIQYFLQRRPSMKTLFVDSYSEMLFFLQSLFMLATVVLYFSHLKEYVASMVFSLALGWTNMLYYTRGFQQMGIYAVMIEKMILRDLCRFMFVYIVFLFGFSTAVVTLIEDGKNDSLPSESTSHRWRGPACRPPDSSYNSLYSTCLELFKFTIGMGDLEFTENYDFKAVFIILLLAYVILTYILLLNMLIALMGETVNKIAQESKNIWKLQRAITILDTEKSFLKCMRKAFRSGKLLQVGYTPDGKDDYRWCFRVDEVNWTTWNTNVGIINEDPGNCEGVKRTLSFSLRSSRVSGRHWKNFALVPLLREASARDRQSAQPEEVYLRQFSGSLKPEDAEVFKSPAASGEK

Turning to `O=C(Nc1ccc(C(F)(F)F)cc1)C1=CCN(c2ncc([C@H](O)CO)cc2F)CC1` [Compound A14], the solubility (in general, the dissolved amount per volume that the medium holds) in series [1] (setting [4]) is more than 50 µM; in series [1] (setting [5]), 19 µM (≈ 8.08 µg/mL). Moreover, the IC50 (commonly the concentration that gives 50% inhibition) at human TRPV1 [2] was determined as 23.8 ± 6.2 nM; at human TRPV1 [3], 9.5 ± 2.5 nM.
Consider `O=C(Nc1ccc(C(F)(F)F)cc1)C1=CCN(c2ncc([C@@H](O)CO)cc2F)CC1` [Compound B14], for which the IC50 on human TRPV1 [2] came out at 29.4 ± 6.3 nM; against human TRPV1 [3], 14.7 ± 1.01 nM.
Turning to `O=C(Nc1ccc(C(F)(F)F)cn1)C1=CCN(c2ncc([C@H](O)CO)cc2F)CC1` [Compound E2], the solubility was more than 50 µM in series [1] (setting [4]) and 25 µM (≈ 10.7 µg/mL) in series [1] (setting [5]). For the same compound, the IC50 on human TRPV1 [2] (setting [6]) was 45.9 ± 4.2 nM.
Take `O=C(Nc1ccc(C(F)(F)F)cn1)C1=CCN(c2ncc([C@@H](O)CO)cc2F)CC1` [Compound F2]: the solubility in series [1] (setting [4]) was more than 50 µM; in series [1] (setting [5]) it was 21 µM (≈ 8.95 µg/mL). Also, the IC50 on human TRPV1 [2] (setting [6]) worked out at 109 ± 25.5 nM.
For `O=C(Nc1nc2ccc(F)cc2s1)C1=CCN(c2ncc([C@H](O)CO)cc2F)CC1` [Compound I5, (S)-1-(5-(1,2-dihydroxyethyl)-3-fluoropyridin-2-yl)-N-(6-fluorobenzo[d]thiazol-2-yl)-1,2,3,6-tetrahydropyridine-4-carboxamide], in that order: 46 µM (≈ 19.9 µg/mL), 1 µM (≈ 0.432 µg/mL) and 35.6 ± 5.1 nM.

The values above are taken from patent publication US8389549B2, “Substituted pyridines useful for treating pain” (Purdue Pharma L.P., priority 2007, dated 2013).
